In patent US12286439B2, “Inhibitors of ERK nuclear translocation” (Yeda Research and Development Co. Ltd., priority 2018, dated 2025):
*: point of attachment. Myristoyl = CCCCCCCCCCCCCC(=O)*

Legend:
[1] = target: interaction of importin7 and ERK1/2 (Homo sapiens, UniProt O95373); settings: Plotnikov et al., Nat Commun 2015; cited from earlier work
A2058 cells = experiment: Dose-response analysis, A2058 cells; format: cell-based; settings: 10 μM
Experimental: (§1) FIG. 15A presents dose response curves of compounds C17, D3, D11 and D14 on 8 cancer cells. Five melanoma cell lines (A2185, A2352, A2024, A2058 and LOX-IMVI), HeLa, HCT-116 and PC3 cells were grown in 1% FCS media containing either DMSO (0.1%), EPE peptide (10 μM), or Compounds C17, D3, D11, D14 at the indicated concentrations, for 72 hours. Viable cells were quantified by staining with methylene blue. Data presented as percentage of DMSO control ±SE of triplicates. […] IC50 values were calculated by interpolation in the curves in FIG. 15A. […] Bar graphs represent average viability respect to DMSO control ±SE of triplicates.
(§2) Cell Viability (IC50) Assay:
(§3) Cells were seeded at a density of 4000 cells per well into 96-well plates in complete medium. After 24 hours, medium was replaced by 1% FCS (fetal calf serum) containing appropriate treatments. Fresh medium containing the same agents was replaced every day. After 96 hours, cell viability was assessed using the CellTiter-Glo reagent (Promega; Madison, WI). IC50 values were determined using GraphPad Prism.

[2] = system: BRAF-mutant, NRAS-mutant and NF1-mutant melanomas; settings: Arafeh et al., Sci Rep 2017; cited from earlier work
[3] = system: Panc-1, AsPC-1, CFPAC-1, MIA PaCa-2, Capan-1, Capan-2 and BxPC-3 pancreatic cancer cells; experiment: Viability assay (methylene blue), pancreatic cancer cell lines; format: cell-based; settings: 10 μM, 72 hours
Experimental: FIGS. 6A and 6B present data showing that Compound Z56 prevents proliferation of pancreatic cancer cells. […] Panc-1, AsPC-1, CFPAC-1, Mia PaCa-2, Capan-1, Capan-2 (Ras-transformed) and BxPC-3 (Ras-wild type) pancreatic cancer cells were treated with either EPE peptide (10 μM; middle bars) or Z56 (3 μM; right bars) or DMSO control (0.1%; left bars) in 1% FCS for 72 hours. […] Panc-1, AsPC-1, BxPC-3 and Mia PaCa-2 cells grown in 1% FCS medium containing either EPE peptide (10 μM), 56 (3 μM), PLX4032 (1 μM), PD184352 (5 μM) or DMSO control (0.1%). The graphs present the kinetics of cell proliferation at the indicated times after the treatment started. Quantification of all viable cells was done by methylene blue and repeated 3 times in triplicates. All results presented as a fold change of the initial cell number and represent averages ±SE.
(§4) Cells were seeded at low confluence into 24, 48 or 96-well plates in complete medium. After 24 hours, medium was replaced by 1% FCS (fetal calf serum) containing appropriate treatments. Fresh medium containing the same agents was replaced every day. After 72 or 96 hours of treatment, cells were fixed with 4% formaldehyde overnight at 23° C., washed once with 0.1 M borate buffer (pH 8.5) for 10 minutes, and stained with of 1% methylene blue in 0.1 M borate buffer (pH 8.5) for 30 minutes. Excess stain was washed out with distilled water. Color was extracted by adding 0.1 M HCl (3 hours, 23° C.), and absorbance measured at 595 nm in an ELISA reader. For time course experiments, attached cells were fixed and measured at 0, 24, 48, 72 and 96 hours. For dose-response experiments, cells were treated with indicated concentrations of reagent, fixed and stained after 72 hours as above.
Activating mutations in Ras are found in more than 95% of pancreatic cancers where signaling through both Raf and Akt pathway drives cancer progression [Campbell et al., Cancer Res 2007, 67:2098-2106]. However, no effective treatments that target this mutant protein have reached the clinic to date, and pancreatic ductal adenocarcinoma remains an almost universally fatal disease [Bryant et al., Trends Biochem Sci 2014, 39:91-100]. Therefore, treating these pancreatic cancer cells downstream of Ras, without overactivating the Akt pathway, should be at least partially beneficial. The effect of Compound Z56 (and EPE peptide) on cell viability of Ras-transformed (and Ras-wild type) pancreatic cancer cells was determined, using a variety of cell lines.
The effects of Compound Z56 on the viability of pancreatic cancer cell lines at various times after treatment was compared with those of PLX4032 (a B-Raf inhibitor) and PD184352 (a MEK1/2 inhibitor).

[4] = system: HeLa, A2352, A2185, LOX-IMVI, A4132, A2024, MDA-MB-231, PC3, A2058 and MCF7 cells; experiment: Viability assay (methylene blue), ten cancer cell lines; format: cell-based; settings: 10 μM, 72 hours, 1% FCS
Experimental: Ten cancer cell lines were treated with either EPE peptide (10 μM; middle bars) or Compound Z56 (3 μM; right bars) or DMSO control (0.1%; left bars) in 1% FCS (fetal calf serum) for 72 hours.
A3252 and A2058 cells were treated either with EPE peptide (10 μM), Z56 (1, 3 or 10 μM) or DMSO control (0.1%). The graphs present the kinetics of cell proliferation at the indicated times. Viable cells were quantified by staining with methylene blue. All results were presented as a fold change of the initial cell number and represent averages ±SE of 3 experiments in triplicate.
as §4, with “For dose-response experiments, cells were treated with indicated concentrations of reagent, fixed and stained after 72 hours as above.” left out

[5] = system: ERK1/2 nuclear translocation; experiment: Determination of ERK1/2 localization by fluorescence microscopy after TPA stimulation; format: cell-based; settings: 10 μM, TPA 100 nM, 15 minutes
Experimental: Determination of Protein Localization by Fluorescence Microscopy:
Indicated cells were seeded on coverslips (coated with 0.001% w/v poly-L-lysine or not, depending on the cell line) at 50% confluency. After the indicated treatment, cells were fixed in 4% paraformaldehyde/PBS for 20 minutes on an ice surface, permeabilized with 0.1% Triton X-100/PBS for 5 minutes at 23° C., then blocked in 2% BSA/PBS for 30 minutes at 23° C. The fixed cells were sequentially incubated with appropriate antibodies (in 2% BSA/PBS, 1.5 hour), washed 3 times with PBS^−/−, and followed by incubation with either Cy-2-conjugated or rhodamine-conjugated secondary antibodies (1:200) and with DAPI ([…]; 1:100) in 2% BSA/PBS for 45 minutes. Slides were analyzed and photographed by a fluorescence microscope (Olympus BX51, ×40). Background correction, and contrast adjustment of raw data images were performed using Photoshop (Adobe, CA, USA).
The effect of Z56 was compared with that of the inhibitory effect of EPE peptide on nuclear translocation of ERK1/2.
The effects of the compounds on ERK1/2 nuclear translocation were evaluated in three cell lines (HeLa cells and two melanoma cell lines, A2185 and A2352), by treating the cells with each compound for two hours, and determining nuclear translocation using fluorescent anti-ERK antibodies, according to procedures described hereinabove.

PC3 cells = experiment: Dose-response analysis, PC3 cells; format: cell-based; settings: 10 μM, 72 hours
Experimental: as §1, §2, §3

interaction of importin7 and ERK1/2, sequence (O95373 whole entry): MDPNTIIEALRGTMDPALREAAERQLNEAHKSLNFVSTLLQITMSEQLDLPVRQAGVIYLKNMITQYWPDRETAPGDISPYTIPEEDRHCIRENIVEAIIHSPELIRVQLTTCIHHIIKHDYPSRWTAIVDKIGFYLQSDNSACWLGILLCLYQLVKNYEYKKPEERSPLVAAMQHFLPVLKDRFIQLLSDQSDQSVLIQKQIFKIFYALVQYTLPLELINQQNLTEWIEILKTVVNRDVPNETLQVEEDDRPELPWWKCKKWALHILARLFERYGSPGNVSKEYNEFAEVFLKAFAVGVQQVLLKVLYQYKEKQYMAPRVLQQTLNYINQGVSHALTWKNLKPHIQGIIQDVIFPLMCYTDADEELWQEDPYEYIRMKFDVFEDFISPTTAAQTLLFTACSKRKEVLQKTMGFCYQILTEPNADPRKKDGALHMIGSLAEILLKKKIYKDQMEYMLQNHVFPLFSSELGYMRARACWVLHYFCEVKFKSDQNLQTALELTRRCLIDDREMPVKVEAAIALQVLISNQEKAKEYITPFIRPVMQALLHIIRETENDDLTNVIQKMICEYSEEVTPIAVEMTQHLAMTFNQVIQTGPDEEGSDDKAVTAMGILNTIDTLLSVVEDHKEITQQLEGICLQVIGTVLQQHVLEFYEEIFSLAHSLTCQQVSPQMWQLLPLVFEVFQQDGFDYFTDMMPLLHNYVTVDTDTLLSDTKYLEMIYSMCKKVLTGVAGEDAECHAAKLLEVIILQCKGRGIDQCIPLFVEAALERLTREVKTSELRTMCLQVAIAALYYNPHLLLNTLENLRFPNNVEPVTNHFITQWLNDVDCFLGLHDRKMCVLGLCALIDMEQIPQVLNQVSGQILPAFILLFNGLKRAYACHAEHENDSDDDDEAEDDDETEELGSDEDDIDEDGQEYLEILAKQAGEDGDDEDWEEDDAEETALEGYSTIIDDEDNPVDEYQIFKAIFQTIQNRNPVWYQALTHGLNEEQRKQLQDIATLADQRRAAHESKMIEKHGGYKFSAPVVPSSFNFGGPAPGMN

Substance: EPE peptide: peptide GQLNHILGILGEPEQEDL (SEQ ID NO: 1) conjugated at N-terminus to myristic acid and C-terminal amidated (Myristoyl-GQLNHILGILGEPEQEDL-NH2; SMILES CCCCCCCCCCCCCC(=O)NCC(=O)N[C@@H](CCC(N)=O)C(=O)N[C@@H](CC(C)C)C(=O)N[C@@H](CC(N)=O)C(=O)N[C@@H](Cc1c[nH]cn1)C(=O)N[C@H](C(=O)N[C@@H](CC(C)C)C(=O)NCC(=O)N[C@H](C(=O)N[C@@H](CC(C)C)C(=O)NCC(=O)N[C@@H](CCC(=O)O)C(=O)N1CCC[C@H]1C(=O)N[C@@H](CCC(=O)O)C(=O)N[C@@H](CCC(N)=O)C(=O)N[C@@H](CCC(=O)O)C(=O)N[C@@H](CC(=O)O)C(=O)N[C@@H](CC(C)C)C(N)=O)[C@@H](C)CC)[C@@H](C)CC) [reference compound]
- interaction of importin7 and ERK1/2 and nuclear translocation of ERK1/2 [1]: blocks the interaction of importin7 and ERK1/2
- viability of BRAF melanoma cells A2058 (A2058 cells): lack of effect
- combination with the MEK inhibitor trametinib, viability of NRAS-mutant melanomas [2]: exhibited synergy
- viability of BRAF-mutant, NRAS-mutant and NF1-mutant melanomas [2]: significantly reduced the viability
- proliferation/viability ([3]; 4 Ras-transformed pancreatic cell lines other than Panc-1 and AsPC-1): no major effect
- reduction of cell proliferation relative to control ([3]; Ras-wild type BxPC-3 cells): 50%
- cell viability and apoptosis ([3]; only 2 of the 7 tested cell lines (Panc-1 and AsPC-1)): reduced cell viability and induced apoptosis
- proliferation of PC3, A2058 and MCF7 cells [4]: not significantly affected
- apoptosis / proliferation of EPE-sensitive cell lines ([4]; HeLa, A2352, A2185, LOX-IMVI, A4132, Z2024, MDA-MB-231): induced apoptosis
- degree of ERK1/2 nuclear localization induced by TPA (percentage of cells with nuclear ERK1/2 staining) ([5]; 2 hours pretreatment, MCF7, A2352, HB2 and HeLa cells): phenotype similar to the basal state
- nuclear accumulation of ERK1/2 upon TPA stimulation ([5]; 2 hours, A2185 and A2352 cells): inhibited
- viability of PC3 cells (PC3 cells): only a very modest effect
